# Patent publication US20140155445A1, “Compounds and Methods for Treating Cancer and Diseases of the Central Nervous System” (Osta Biotechnologies Inc., priority 2007, published 2014)
# Entries after “also recorded” stand apart in the source; their conditions may differ.
# How the values were obtained:
# [1] = tested on: HCT-116 colorectal carcinoma; assay: Colorectal carcinoma model HCT-116 in SCID mice; format: in vivo, human
# Excerpt: (§1) Control groups received the vehicle alone.
# SKMEL-V+ cells = assay: Melanoma efficacy study of QC-199, SKMEL-V+ cells s.c. in Scid mice; format: in vivo, human; details: 10 mg/kg i.v. injection, 2 cycles, d1, 3, 5 per cycle
# Protocol: BD PharMingen, San Diego, Calif.). Cryostat sections were used for CD31 staining. […] Sections were rehydrated in PBS and then blocked with 5% normal goat serum for 1 h. The sections were then incubated overnight at 4° C. with CD31 antibody diluted 1:25 in 3% BSA-PBS. […] Sections were counterstained with Harris' hematoxylin and mounted. Slides were analyzed by conventional light microscopy and photographed using color slides (Eastman Kodak, Rochester, N.Y.). Balb/c Scid mice, 6 week-old, were obtained from Charles River Laboratories, St. Zotique, PQ, Canada. The mice weighed 18-22 g. The experiments were approved by the Animal Care Committee, McGill University, Montreal. The animals were housed in individual cages (4 per cage) and were fed standard rodent chow and water ad libitum. […] When the tumors become palpable (size of a rice), mice weights were measured with a digital balance accurate to 0.05 g. […] For the infusion, mice were anesthetized using isoflurane-based system ([…] COMPACT NRB, 3975-0800-000). For the infusion, a mini pump (NE-1800, New Era Pump Systems, Inc.) was used to infuse the compound via the tail vein during a 2 h period. […] At experiment termination, mice were anesthetized with isoflurane and sacrificed by cervical dislocation. Tumors were dissected and tumor weights were measured using a digital balance.
# [2] = tested on: SKMEL 28-V+ cells (human melanoma); assay: Melanoma model SKMEL-V+ in SCID mice (combination study); format: in vivo; details: QC-56 60 mg/kg/ip; Dacarbazine 55 mg/kg
# Protocol: SKMEL 28-V+ cells (human melanoma). These cells were originally from the ATCC and then engineered to overexpress VEGF. […] The cells were tested to be free of mycoplasma.
# as §1
# [3] = target: T1, human HO-1 (hHO-1) in transfected astroglia (Homo sapiens, UniProt P09601); assay: HO enzyme activity (bilirubin formation) in hHO-1-transfected astrocytes; format: cell-based
# T1 construct: containing the entire protein-coding region (866 bp) of the human HO-1 gene; expressed in transfected cells; host or cells: primary rat astrocytes, transient transfection with pcDNA3.1/Zeo.CMV.Flag.hHO-1 (Lipofectamine 2000)
# T1 sequence (P09601 1-288): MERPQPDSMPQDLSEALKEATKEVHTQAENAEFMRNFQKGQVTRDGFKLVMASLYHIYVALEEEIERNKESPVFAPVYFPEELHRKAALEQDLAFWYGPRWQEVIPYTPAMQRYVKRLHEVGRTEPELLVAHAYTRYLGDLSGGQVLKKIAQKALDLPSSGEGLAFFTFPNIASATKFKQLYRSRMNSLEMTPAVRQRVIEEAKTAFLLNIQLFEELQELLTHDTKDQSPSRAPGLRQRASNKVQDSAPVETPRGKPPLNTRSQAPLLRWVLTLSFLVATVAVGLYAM
# Protocol: (§2) Upon reaching >90% confluence, 1×10^6 cells were transiently transfected with 4.0 μg of plasmid DNA-Lipofectamine 2000 complex using Lipofectamine 2000 method according to manufacturer instructions (Invitrogen). […] 12 μg of plasmid DNA and 16 μl of Lipofectamine 2000 reagent were diluted in 1.5 mL opti-MEM I reduced serum medium and incubated for 5 minutes at room temperature with gentle mixing. The two solutions were combined, incubated at room temperature for 20 minutes to promote formation of DNA-lipid complexes and administered to the cells. 2 mL opti-MEM I reduced serum medium was added to the flasks to ensure coverage of the monolayer by the transfection mixture. Following incubation for 6 hours at 37° C., the transfection mixture was replaced with 10 mL of complete media without antibiotics.
# A young adult male rat was gas-anesthetized, laid on ice and systemically perfused with ice-cold 0.9% NaCl to get rid of all blood from liver. The liver was then excised on ice and transferred to a cold room (4° C.) and cut into small pieces in cold 0.9% NaCl (3 mL per gram of tissue) with surgical scissors in and placed in a 50 mL tube. The tissue chunks were homogenized with an electric tissue homogenizer and centrifuged at 150×g for […] at 4° C. Similarly, all of the following steps, including centrifugations, were performed at 4° C. The supernatant was centrifuged at 18,000×g for 10 min and further at 30,000×g for 30 min. A saturated solution of ammonium sulfate was added to the 30,000×g supernatant to attain 40% saturation and placed on ice for 10 min. The mixture was centrifuged at 10,000×g for 10 min and supernatant was recovered and transferred to a fresh tube. Sixty percent of saturation was achieved by adding saturation solution of ammonium sulfate to the supernatant. The mixed solution was centrifuged again at 10,000×g for 10 min and […]. […] The dialysate was centrifuged at 10,000 g for 10 min and pellet was discarded. The protein concentration of the supernatant was measured with Bradford reagent (BioRad laboratories, Hercules, Calif.) and adjusted to 10 mg/mL with 0.01 M KPO4, pH7.4. The supernatant was aliquoted and stored at −20° C. ready for use.
# Cytosol extracts were prepared for HO activity measurement by the method of Ryter (Ryter, Kvam, Tyrrell 2000). Astroglial monolayers were washed with ice-cold PBS and scraped in ice-cold PBS-EDTA (1 mM, pH 8.0) containing 50 μg/mL protease inhibitor (AEBSF), centrifuged at 150×g at 4° C. and resuspended in 20 mM Tris-HCl (pH 7.4) and 0.25 M sucrose containing protease inhibitors. Cell suspensions were sonicated on ice 2×15 s at 20 W and centrifuged for 20 min at 4° C. at 15,000×g. Protein concentration of supernatant was measured with Bradford method. […] Reaction mixtures were incubated at 37° C. in the dark for 60 min with hard vortex every 10 min. […] HO activity was calculated as nanomoles bilirubin per milligram protein per min, assuming an extinction coefficient of 40/mM/cm in chloroform (see FIG. 8).
# Cells were rinsed twice with cold PBS (pH 7.4) and scraped in iced lysis buffer consisting of 1% Nonidet P-40, 50 mM Tris.HCl (pH 7.4), 30 mM NaCl, 25 mM β-glycerophosphate, 10 mM EDTA, 10 mM EGTA, 1 mM MgCl2, and protease inhibitors (10 mM sodium fluoride, 50 μg/mL AEBBSF, 5 μg/mL leupeptin, 5 μg/mL pepstatin, 5 μg/mL aprotinin). […] Protein contents were determined using the Bradford method. […]
# [4] = tested on: hHO-1 transfected primary rat astroglial cultures; assay: Protein carbonyl ELISA in hHO-1-transfected primary rat astroglia (whole-cell and mitochondrial compartments); format: cell-based
# Protocol: Cells were grown in Ham's F12 and high glucose DMEM (50:50 v/v) supplemented with 10 mM HEPES, 5% heat-inactivated horse serum, 5% heat-inactivated fetal bovine serum, and penicillin-streptomycin (50 U/mL and 50 μg/mL, respectively).
# as §2
# The cells were sonicated (Sonics & Materials, Danbury, Conn.) at a power level of 50 for 3×20 s in a cooled water bath. […] Whole-cell and mitochondrial preparations were assayed for protein carbonyls as described below.
# Protein carbonyls were reacted with 2,4-dinitrophenylhydrazine (DNP) and the hydrazone adducts were detected with anti-DNP antisera. Quantification was achieved by comparison with oxidized BSA standards. Oxidized (carbonylated) BSA was prepared by reacting natural BSA (at 50 mg/mL in PBS) with hypochlorous acid (5 mM) for 1 h at 37° C., followed by overnight dialysis against PBS at 4° C. […] The pellet was resuspended in 2 mL of same buffer, sonicated on ice 2×15 s at 20 W and centrifuged for 20 min at 4° C. at 1,303×g. Protein concentration of supernatant was measured with the RC DC protein assay based on the Lowry protocol (Bio-Rad Laboratories, Hercules, Calif.). All samples were adjusted to 4.0 mg protein/mL. […] Five microliters aliquots of each reaction mixture were mixed with 1 mL PBS and 200 μL replicates were added per well to 96-well immunoplates and incubated overnight at 4° C. After washing with PBS, nonspecific binding sites were blocked with 0.1% Tween 20 in PBS. […] A 6-point standard curve of reduced and oxidized BSA was generated for each plate analyzed. Specific absorbance for each sample was calculated by subtracting basal absorbance of the DNP reagent from the total absorbance.
# [5] = tested on: OVCAR-3 (human ovarian carcinoma); assay: Ovarian carcinoma model OVCAR-3 in SCID mice; format: in vivo; details: QC-56 60 mg/kg/ip; CDDP 3 mg/kg
# Excerpt: • Species and strain: […] OVCAR-3 (human ovarian carcinoma). […] Control groups received the vehicle alone.
# [6] = tested on: B16-BL6 cells (mouse melanoma); assay: B16-BL6 melanoma lung metastasis model; format: in vivo; details: QC-56 60 mg/kg i.p.; vehicle group 101 nodules
# Protocol: • Species and strain: […] B16-BL6 cells (mouse melanoma). B16-BL6 metastatic variant was derived from B16-F10. This cell variant was obtained from Dr. Linda D. Williams, Dept. of Cancer Biology, MD Anderson Cancer Center, Texas, USA. […] Cells were maintained at 37° C. in a humidified atmosphere (5% CO2, 95% air). […] Control groups received the vehicle alone.
smiles,measurement,setting,value
"O=c1[nH]cc(F)c(=O)[nH]1 [5-FU, reference compound]",mouse mortality,"[1]; 60 mg/kg, HCT-116 model (FIG. 25)",induced mortality
same,reduction of tumor volume at the time of sacrifice compared to control,"[1]; QC-56 60 mg/kg/ip, 5-FU 60 mg/kg/ip reduced to 40 mg/kg",similar
"CN(C)/N=N/c1[nH]cnc1C(N)=O [Dacarbazine, reference compound]",reduction of tumor volume vs vehicle,SKMEL-V+ cells,21%
same,inhibition of tumor growth compared to vehicle alone,[2],approximately 24%
same,tumor size on the day of sacrifice,[2],1.30±0.23 cm^3
"Cl.FC[C@@H]1CO[C@@](CCc2ccc(Cl)cc2)(Cn2ccnc2)O1 [QC-47, (2R,4S)-2-[2-(4-Chlorophenyl)ethyl]-2-[(1H-imidazol-1-yl)methyl]-4-(fluoromethyl)-1,3-dioxolane hydrochloride]",HO activity in HO-1-transfected astroglia,"[3]; 6.5 μM, 18 h, hHO-1-transfected cells, hydrochloride",suppressed to levels akin to those of non-transfected and sham-transfected controls; also recorded: significantly attenuated; also recorded: significantly decreased
same,expression level of flag-tagged HO-1 protein,"[3]; 6.5 μM, transiently transfected cells",without affecting the expression level of flag-tagged HO-1 protein
same,IC50,"[3]; concentration of QC-47 used on HO-1-transfected astroglia, stated as IC50",6.5 µM
same,oxidative protein damage (protein carbonyls) accruing from hHO-1 transfection,[4]; 6.5 μM,significantly attenuated
same,dose dependence of attenuation of oxidative protein damage,"[4]; transiently transfected rat astroglia, hydrochloride",significant dose dependant attenuations; also recorded: in a dose dependent manner significantly decreased
"N.N.[Cl][Pt][Cl] [cisplatin, reference compound]",tumor size on the day of sacrifice,[5],0.63±0.06 cm^3
same,macroscopic nodules in the lungs (average),[6],60
